The NIST ThermoML archive (doi:10.1021/je060203o)

Conditions: Liquid; for speed of sound: Pulse-echo method; for mass density: Vibrating tube method

CCCn1cc[n+](C)c1.O=S(=O)([N-]S(=O)(=O)C(F)(F)F)C(F)(F)F
Conditions | mass density [kg/m3] | speed of sound [m/s]
318.15 K, 10000 kPa | – | 1225.2
318.15 K, 10020 kPa | 1464.41 | –
318.15 K, 13500 kPa | – | 1236.8
318.15 K, 14980 kPa | 1467.91 | –
318.15 K, 17000 kPa | – | 1248.2
318.15 K, 19750 kPa | 1471.3 | –
318.15 K, 20000 kPa | – | 1257.7
318.15 K, 25860 kPa | 1475.51 | –
318.15 K, 30000 kPa | – | 1288.7
318.15 K, 31480 kPa | 1479.58 | –
318.15 K, 37770 kPa | 1483.63 | –
318.15 K, 40000 kPa | – | 1317.8
318.15 K, 44170 kPa | 1487.95 | –
318.15 K, 50000 kPa | – | 1345.7
318.15 K, 50750 kPa | 1492.22 | –
318.15 K, 59590 kPa | 1498.46 | –
318.15 K, 60000 kPa | – | 1372.2
318.15 K, 70000 kPa | – | 1397.8
318.15 K, 80000 kPa | – | 1422.3
318.15 K, 90000 kPa | – | 1446.3
318.15 K, 100000 kPa | – | 1468.9
318.15 K, 112500 kPa | – | 1496.5
318.15 K, 125000 kPa | – | 1523.2
318.15 K, 137510 kPa | – | 1548.4
318.15 K, 150000 kPa | – | 1572.9
318.15 K, 162500 kPa | – | 1596.6
318.15 K, 175000 kPa | – | 1620
318.15 K, 187500 kPa | – | 1642.7
318.15 K, 200000 kPa | – | 1664.6
323.15 K, 100 kPa | 1451.66 | –
323.15 K, 1830 kPa | 1452.94 | –
323.15 K, 10020 kPa | 1459.11 | –
323.15 K, 14980 kPa | 1462.75 | –
323.15 K, 19750 kPa | 1466.15 | –
323.15 K, 25860 kPa | 1470.44 | –
323.15 K, 31480 kPa | 1474.24 | –
323.15 K, 37770 kPa | 1478.57 | –
323.15 K, 44170 kPa | 1482.86 | –
323.15 K, 50750 kPa | 1487.24 | –
323.15 K, 59590 kPa | 1493.03 | –
325.15 K, 100 kPa | 1449.44 | –
325.15 K, 1830 kPa | 1450.74 | –
325.15 K, 10020 kPa | 1456.98 | –
325.15 K, 14980 kPa | 1460.64 | –
325.15 K, 19750 kPa | 1464.08 | –
325.15 K, 25860 kPa | 1468.44 | –
325.15 K, 31480 kPa | 1472.46 | –
325.15 K, 37770 kPa | 1476.81 | –
325.15 K, 44170 kPa | 1481.18 | –
325.15 K, 50750 kPa | 1485.62 | –
325.15 K, 59590 kPa | 1491.56 | –
327.15 K, 100 kPa | 1447.19 | –
327.15 K, 1830 kPa | 1448.52 | –
327.15 K, 10020 kPa | 1454.88 | –
327.15 K, 14980 kPa | 1458.57 | –
327.15 K, 19750 kPa | 1461.98 | –
327.15 K, 25860 kPa | 1466.38 | –
327.15 K, 31480 kPa | 1470.37 | –
327.15 K, 37770 kPa | 1474.75 | –
327.15 K, 44170 kPa | 1479.18 | –
327.15 K, 50750 kPa | 1483.65 | –
327.15 K, 59590 kPa | 1489.6 | –
328.15 K, 500 kPa | – | 1170.9
328.15 K, 3500 kPa | – | 1181.8
328.15 K, 7000 kPa | – | 1194.2
328.15 K, 10000 kPa | – | 1204.7
328.15 K, 13500 kPa | – | 1216.4
328.15 K, 17000 kPa | – | 1228
328.15 K, 20000 kPa | – | 1237.7
328.15 K, 30000 kPa | – | 1269.2
328.15 K, 40000 kPa | – | 1299.1
328.15 K, 50000 kPa | – | 1327.3
328.15 K, 60000 kPa | – | 1354.2
328.15 K, 70000 kPa | – | 1380.1
328.15 K, 80000 kPa | – | 1405.1
328.15 K, 90000 kPa | – | 1429.1
328.15 K, 100000 kPa | – | 1452.2
328.15 K, 112500 kPa | – | 1480.1
328.15 K, 125000 kPa | – | 1506.9
328.15 K, 137510 kPa | – | 1532.8
328.15 K, 150000 kPa | – | 1557
328.15 K, 162500 kPa | – | 1581.2
328.15 K, 175000 kPa | – | 1604.6
328.15 K, 187500 kPa | – | 1627.3
328.15 K, 200000 kPa | – | 1649.6
329.15 K, 100 kPa | 1444.85 | –
329.15 K, 1830 kPa | 1446.17 | –
329.15 K, 10020 kPa | 1452.55 | –
329.15 K, 14980 kPa | 1456.27 | –
329.15 K, 19750 kPa | 1459.81 | –
329.15 K, 25860 kPa | 1464.24 | –
329.15 K, 31480 kPa | 1468.26 | –
329.15 K, 37770 kPa | 1472.67 | –
329.15 K, 44170 kPa | 1477.09 | –
329.15 K, 50750 kPa | 1481.63 | –
329.15 K, 59590 kPa | 1487.58 | –
331.15 K, 100 kPa | 1442.53 | –
331.15 K, 1830 kPa | 1443.83 | –
331.15 K, 10020 kPa | 1450.37 | –
331.15 K, 14980 kPa | 1454.12 | –
331.15 K, 19750 kPa | 1457.75 | –
331.15 K, 25860 kPa | 1462.22 | –
331.15 K, 31480 kPa | 1466.27 | –
331.15 K, 37770 kPa | 1470.7 | –
331.15 K, 44170 kPa | 1475.13 | –
331.15 K, 50750 kPa | 1479.63 | –
331.15 K, 59590 kPa | 1485.58 | –
333.15 K, 100 kPa | 1440.12 | –
333.15 K, 1830 kPa | 1441.48 | –
333.15 K, 10020 kPa | 1448.04 | –
333.15 K, 14980 kPa | 1451.88 | –
333.15 K, 19750 kPa | 1455.51 | –
333.15 K, 25860 kPa | 1460.01 | –
333.15 K, 31480 kPa | 1464.11 | –
333.15 K, 37770 kPa | 1468.58 | –
333.15 K, 44170 kPa | 1473.05 | –
333.15 K, 50750 kPa | 1477.56 | –
333.15 K, 59590 kPa | 1483.54 | –
338.15 K, 1420 kPa | – | 1153.5
338.15 K, 3500 kPa | – | 1161.2
338.15 K, 7000 kPa | – | 1173.8
338.15 K, 10000 kPa | – | 1184.4
338.15 K, 13500 kPa | – | 1196.6
338.15 K, 17000 kPa | – | 1208.3
338.15 K, 20000 kPa | – | 1218.2
338.15 K, 30000 kPa | – | 1250.4
338.15 K, 40000 kPa | – | 1280.7
338.15 K, 50000 kPa | – | 1309.2
338.15 K, 60000 kPa | – | 1336.7
338.15 K, 70000 kPa | – | 1362.9
338.15 K, 80000 kPa | – | 1388.1
338.15 K, 90000 kPa | – | 1412.3
338.15 K, 100000 kPa | – | 1435.8
338.15 K, 112500 kPa | – | 1463.9
338.15 K, 125000 kPa | – | 1491.1
338.15 K, 137510 kPa | – | 1517
338.15 K, 150000 kPa | – | 1541.4
338.15 K, 162500 kPa | – | 1566
338.15 K, 175000 kPa | – | 1589.5
